Experimental data reported in patent publication US11939334B2, “Substituted pyrimido[4,5-b][1,4]diazepines as PLK1 degradation inducers” (UPPTHERA, INC., priority 2021, dated 2024).

Experiments:
[1] = molecular target: T1, PLK1 (Homo sapiens, UniProt P53350); assay: Luciferase assay for PLK1 in HeLa LgBit (Plk1-HiBit KI) cell line; assay type: cell-based; conditions: 300 nM compound, luminescence after 9 hours
T1 construct: endogenous in cells; host or cells: HeLa cells stably expressing LgBit, with CRISPR/Cas9 knock-in of HiBit at the endogenous PLK1 locus
T1 sequence (P53350 whole entry): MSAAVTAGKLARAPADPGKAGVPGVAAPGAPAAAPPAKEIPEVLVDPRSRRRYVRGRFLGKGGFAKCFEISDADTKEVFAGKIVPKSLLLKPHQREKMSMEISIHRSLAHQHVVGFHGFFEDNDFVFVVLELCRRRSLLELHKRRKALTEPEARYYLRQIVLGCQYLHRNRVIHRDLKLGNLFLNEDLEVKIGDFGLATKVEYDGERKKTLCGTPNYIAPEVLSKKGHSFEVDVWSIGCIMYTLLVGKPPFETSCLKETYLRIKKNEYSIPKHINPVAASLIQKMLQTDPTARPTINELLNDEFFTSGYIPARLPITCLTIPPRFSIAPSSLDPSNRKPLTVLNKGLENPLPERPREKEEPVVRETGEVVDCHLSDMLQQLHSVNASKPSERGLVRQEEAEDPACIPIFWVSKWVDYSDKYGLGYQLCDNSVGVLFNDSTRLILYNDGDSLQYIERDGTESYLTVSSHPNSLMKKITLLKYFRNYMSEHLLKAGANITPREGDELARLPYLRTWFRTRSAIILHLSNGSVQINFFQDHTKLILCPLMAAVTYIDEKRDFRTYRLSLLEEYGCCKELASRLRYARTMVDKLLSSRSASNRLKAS
Method: 2. Luciferase Assay for PLK1
(1) Preparation and Culture of HeLa LgBit (Plk1-HiBit KI) Cell Line
A HeLa cell line in which the LgBit vector was transfected and expressed stably was prepared. Then, after constructing gRNA and donor to express the HiBit amino acid sequence behind the C-terminal of the Plk1 gene, which was inherent in the cell, it was inserted into the cell together with a vector capable of expressing CRISPR/Cas9. Only the cells in which the insertion was completed and knock-in had progressed were selected, sub-cultured and used.
(2) Treatment of Compounds of the Present Invention and Method of Luciferase Assay
In the case of HeLa LgBit (Plk1-HiBit KI), the compounds were treated after being released after thymidine block, and the process was as follows. Thymidine (Sigma-Aldrich Cat. No. T9250-5G) was completely dissolved in DW and used in the experiment. For thymidine block, the products were treated with 2 mM of thymidine and then incubated for 24 hours. For release and chemical treatment, the medium was suctioned and washed with 1×PBS. TrypLE™ was added and incubated in 37° C. CO2 incubator for 5 min. Cells neutralized by adding complete media were counted through a counter. For each well of a 96-well culture plate (SPL), 3.3×10^4 cells and a total medium volume of 150 μL were seeded and incubated in a CO2 incubator.
Each cell line was incubated in a CO2 incubator for 18 hours, and Endurazine was added to each well to make up 4% of the total volume. After adding the compound of the present invention in a 96-well white plate (SPL) to a concentration of 300 nM, the wavelength of the plate reader (BMG Labtech, CLARIOstar Plus) was set to […], and then the luminescence was tracked in real time.
The results are shown in Table 2 below and FIGS. 1 and 2.
In Table 2, Activity represents the ratio of the luminescence value of each Exemplary Compound treatment group to DMSO treatment group (+++: <0.3, ++ <0.6, + <0.7).

[2] = test system: H526 cell line; assay: Cell viability assay for H526 cell line; assay type: cell-based; conditions: Homo sapiens, NCI-H526, 120 h; H526 cells, 5 days, EZ-Cytox, 0.46-3000 nM
Method: 3. Cell Viability Assay for H526 Cell Line
(1) Culture of NCI-H526 Cell Line
(2) Treatment of Compounds of the Present Invention and Method of Cell Viability Assay
After treating the compound to each well to make the total volume of 200 μL, it was cultured in a CO2 incubator (Thermo Fisher Science, Cat. No. 4111) for 5 days.
The absorbance of the completely cultured sample was measured by setting the wavelength of a plate reader (BMG Labtech, CLARIOstar Plus) to […], and was measured after shaking for 3 minutes in a plate reader before measurement.
In Table 3, Activity represents IC50 value of each Exemplary Compound treatment group to H526 cell line (A: <30 nM, B: <50 nM, C: <100 nM, D: <200 nM, E: <400 nM).

SMILES	Activity: ratio of the luminescence value of each Exemplary Compound treatment group to DMSO treatment group [1]	IC50 [2] [µM]
COc1cc(C(=O)NC2CCC(CCN3CCN(c4ccc(C5CCC(=O)NC5=O)cc4F)CC3)CC2)ccc1Nc1ncc2c(n1)N(C(C)C)CC(F)(F)C(=O)N2C (stereo not drawn) [Compound 41, 4-((7,7-difluoro-9-isopropyl-5-methyl-6-oxo-6,7,8,9-tetrahydro-5H-pyrimido[4,5-b][1,4]diazepin-2-yl)amino)-N-((1s,4s)-4-(2-(4-(4-(2,6-dioxopiperidin-3-yl)-2-fluorophenyl)piperazin-1-yl)ethyl)cyclohexyl)-3-methoxybenzamide]	++ (++ <0.6)	
COc1cc(C(=O)NN2CCC(CN3CCN(C(=O)c4ccc(OC)c(N5CCC(=O)NC5=O)c4)CC3)CC2)ccc1Nc1ncc2c(n1)N(C(C)C)CC(F)(F)C(=O)N2C [Compound 51, 4-((7,7-difluoro-9-isopropyl-5-methyl-6-oxo-6,7,8,9-tetrahydro-5H-pyrimido[4,5-b][1,4]diazepin-2-yl)amino)-N-(4-((4-(3-(2,4-dioxotetrahydropyrimidin-1(2H)-yl)-4-methoxybenzoyl)piperazin-1-yl)methyl)piperidin-1-yl)-3-methoxybenzamide]	+ (+ <0.7)	
COc1cc(C(=O)NC2CCC(N(C)CC3CCN(c4ccc(C5CCC(=O)NC5=O)cc4F)CC3)CC2)ccc1Nc1ncc2c(n1)N(C(C)C)CC(F)(F)C(=O)N2C (stereo not drawn) [Compound 8, 4-((7,7-difluoro-9-isopropyl-5-methyl-6-oxo-6,7,8,9-tetrahydro-5H-pyrimido[4,5-b][1,4]diazepin-2-yl)amino)-N-((1s,4s)-4-(((1-(4-(2,6-dioxopiperidin-3-yl)-2-fluorophenyl)piperidin-4-yl)methyl)(methyl)amino)cyclohexyl)-3-methoxybenzamide]	++ (++ <0.6)	
COc1cc(C(=O)NC2CC3(CCN(C[C@H]4C[C@@H]5C[C@H]4CN5c4ccc(C5CCC(=O)NC5=O)cc4F)CC3)C2)ccc1Nc1ncc2c(n1)N(C(C)C)CC(F)(F)C(=O)N2C (stereo partly drawn) [Compound 27, 4-((7,7-difluoro-9-isopropyl-5-methyl-6-oxo-6,7,8,9-tetrahydro-5H-pyrimido[4,5-b][1,4]diazepin-2-yl)amino)-N-(7-(((1R,4R,5S)-2-(4-(2,6-dioxopiperidin-3-yl)-2-fluorophenyl)-2-azabicyclo[2.2.1]heptan-5-yl)methyl)-7-azaspiro[3.5]nonan-2-yl)-3-methoxybenzamide]	++ (++ <0.6)	< 0.03
COc1cc(C(=O)NC2CC3(CCN(CC4CCN(c5ccc(C6CCC(=O)NC6=O)c(OC)c5)CC4)CC3)C2)ccc1Nc1ncc2c(n1)N(C(C)C)CC(F)(F)C(=O)N2C (stereo not drawn) [Compound 37, 4-((7,7-difluoro-9-isopropyl-5-methyl-6-oxo-6,7,8,9-tetrahydro-5H-pyrimido[4,5-b][1,4]diazepin-2-yl)amino)-N-(7-((1-(4-(2,6-dioxopiperidin-3-yl)-3-methoxyphenyl)piperidin-4-yl)methyl)-7-azaspiro[3.5]nonan-2-yl)-3-methoxybenzamide]	++ (++ <0.6)	
COc1cc(C(=O)NC2CC3(CCN(CC4CCN(c5ccc(C6CCC(=O)NC6=O)cc5F)CC4)CC3)C2)ccc1Nc1ncc2c(n1)N1CCC[C@@H]1CC(=O)N2C (stereo partly drawn) [Compound 24, N-(7-((1-(4-(2,6-dioxopiperidin-3-yl)-2-fluorophenyl)piperidin-4-yl)methyl)-7-azaspiro[3.5]nonan-2-yl)-3-methoxy-4-(((R)-5-methyl-6-oxo-6,7,7a,8,9,10-hexahydro-5H-pyrimido[5,4-b]pyrrolo[1,2-d][1,4]diazepin-2-yl)amino)benzamide]	++ (++ <0.6)	< 0.1
COc1cc(C(=O)NC2CC3(CCN(CC4CCN(c5ccc(C6CCC(=O)NC6=O)cc5F)C(=O)C4)CC3)C2)ccc1Nc1ncc2c(n1)N(C(C)C)CC(F)(F)C(=O)N2C (stereo not drawn) [Compound 28, 4-((7,7-difluoro-9-isopropyl-5-methyl-6-oxo-6,7,8,9-tetrahydro-5H-pyrimido[4,5-b][1,4]diazepin-2-yl)amino)-N-(7-((1-(4-(2,6-dioxopiperidin-3-yl)-2-fluorophenyl)-2-oxopiperidin-4-yl)methyl)-7-azaspiro[3.5]nonan-2-yl)-3-methoxybenzamide]	++ (++ <0.6)	< 0.03
COc1cc(C(=O)NC2CC3(CCN(CCC4CCN(c5ccc(C6CCC(=O)NC6=O)cc5F)CC4)CC3)C2)ccc1Nc1ncc2c(n1)N(C(C)C)CC(F)(F)C(=O)N2C (stereo not drawn) [Compound 29, 4-((7,7-difluoro-9-isopropyl-5-methyl-6-oxo-6,7,8,9-tetrahydro-5H-pyrimido[4,5-b][1,4]diazepin-2-yl)amino)-N-(7-(2-(1-(4-(2,6-dioxopiperidin-3-yl)-2-fluorophenyl)piperidin-4-yl)ethyl)-7-azaspiro[3.5]nonan-2-yl)-3-methoxybenzamide]	++ (++ <0.6)	< 0.03
COc1cc(C(=O)NC2CC3(CCN(CC4CCN(Cc5ccc(C6CCC(=O)NC6=O)cc5F)CC4)CC3)C2)ccc1Nc1ncc2c(n1)N(C(C)C)CC(F)(F)C(=O)N2C (stereo not drawn) [Compound 34, 4-((7,7-difluoro-9-isopropyl-5-methyl-6-oxo-6,7,8,9-tetrahydro-5H-pyrimido[4,5-b][1,4]diazepin-2-yl)amino)-N-(7-((1-(4-(2,6-dioxopiperidin-3-yl)-2-fluorobenzyl)piperidin-4-yl)methyl)-7-azaspiro[3.5]nonan-2-yl)-3-methoxybenzamide]	++ (++ <0.6)	
COc1cc(C(=O)NC2CCN(C3CCN(c4ccc(C5CCC(=O)NC5=O)cc4F)C3)CC2)ccc1Nc1ncc2c(n1)N(C(C)C)CC(F)(F)C(=O)N2C (stereo not drawn) [Compound 59, 4-((7,7-difluoro-9-isopropyl-5-methyl-6-oxo-6,7,8,9-tetrahydro-5H-pyrimido[4,5-b][1,4]diazepin-2-yl)amino)-N-(1-(1-(4-(2,6-dioxopiperidin-3-yl)-2-fluorophenyl)pyrrolidin-3-yl)piperidin-4-yl)-3-methoxybenzamide]	++ (++ <0.6)	
COc1cc(C(=O)NCC2CC3(CCN(CC4CCN(c5ccc(C6CCC(=O)NC6=O)cc5F)CC4)CC3)C2)ccc1Nc1ncc2c(n1)N(C(C)C)CC(F)(F)C(=O)N2C (stereo not drawn) [Compound 30, 4-((7,7-difluoro-9-isopropyl-5-methyl-6-oxo-6,7,8,9-tetrahydro-5H-pyrimido[4,5-b][1,4]diazepin-2-yl)amino)-N-((7-((1-(4-(2,6-dioxopiperidin-3-yl)-2-fluorophenyl)piperidin-4-yl)methyl)-7-azaspiro[3.5]nonan-2-yl)methyl)-3-methoxybenzamide]	+++ (+++: <0.3)	< 0.1
COc1cc(C(=O)NC2CC3(CCN(CCC4(C)CCN(c5ccc(C6CCC(=O)NC6=O)cc5F)C4)CC3)C2)ccc1Nc1ncc2c(n1)N(C(C)C)CC(F)(F)C(=O)N2C (stereo not drawn) [Compound 26, 4-((7,7-difluoro-9-isopropyl-5-methyl-6-oxo-6,7,8,9-tetrahydro-5H-pyrimido[4,5-b][1,4]diazepin-2-yl)amino)-N-(7-(2-(1-(4-(2,6-dioxopiperidin-3-yl)-2-fluorophenyl)-3-methylpyrrolidin-3-yl)ethyl)-7-azaspiro[3.5]nonan-2-yl)-3-methoxybenzamide]	++ (++ <0.6)	< 0.03
